Test systems include A498 renal; SK-OV-3 ovarian; HOP-62 NSCLC; SK-MEL-5 melanoma; OVCAR-5 ovarian; SN12C renal; SF-268 CNS; OVCAR-3 ovarian; HCT-15 colon; U251 CNS.
Holding throughout (assay): growth of human tumour cells (NCI), 48 h

This is an account of results in PubChem BioAssay (NCI).

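Where inhibition never reached the appropriate level, the endpoint shown equals the highest concentration tested. Otherwise, values were interpolated linearly from a five-concentration, 48-hour dose response in 96-well plates. The concentration for 50% growth inhibition is given as GI50. TGI denotes the concentration required for complete inhibition of growth.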 Bounds are passed on as bounds.

`COc1ccc(/C=C2\CCCC3=C2N=C2SC(C)=NN2C3c2ccc(OC)c(OC)c2)cc1OC` (stereo not given): the GI50 with A498 renal was 2 µM; in the assay on SK-OV-3 ovarian it was 62.5 µM; in the assay with HOP-62 NSCLC, 19.8 µM; with SK-MEL-5 melanoma, 6.27 µM; with OVCAR-5 ovarian, 36 µM; in the assay with SN12C renal, 14 µM. Further, the GI50 with SF-268 CNS was 18.2 µM; in the assay on OVCAR-3 ovarian, 4.62 µM; with HCT-15 colon, 3.49 µM; in the assay on U251 CNS it was 26.2 µM. Besides, the TGI in the assay on A498 renal is 86.3 µM; with SK-OV-3 ovarian, greater than 100 µM; in the assay with HOP-62 NSCLC it was greater than 100 µM; with SK-MEL-5 melanoma, greater than 100 µM; with OVCAR-5 ovarian, greater than 100 µM; in the assay with SN12C renal, greater than 100 µM. For the same molecule, the TGI in the assay with SF-268 CNS is greater than 100 µM; in the assay on OVCAR-3 ovarian it was 74.9 µM; with HCT-15 colon, 19.4 µM; with U251 CNS, greater than 100 µM.
For `Nc1nc2c(c3ncncc13)C(c1cccc(C(F)(F)F)c1)Cc1ncncc1-2` (stereo not given), the GI50 was 3.28 µM in the assay on A498 renal; 5.07 µM in the assay on SK-OV-3 ovarian; 7.41 µM with HOP-62 NSCLC; 4.88 µM with SK-MEL-5 melanoma; 11.3 µM in the assay on OVCAR-5 ovarian; 7.66 µM with SN12C renal. For the same molecule, the GI50 in the assay with SF-268 CNS was 5.94 µM; with OVCAR-3 ovarian, 3.03 µM; in the assay with HCT-15 colon it was 3.57 µM; in the assay with U251 CNS, 3.69 µM. The TGI was 8.75 µM in the assay on A498 renal; greater than 100 µM with SK-OV-3 ovarian; 47.2 µM in the assay with HOP-62 NSCLC; 17.7 µM in the assay with SK-MEL-5 melanoma; 31.4 µM in the assay with OVCAR-5 ovarian; 49.2 µM with SN12C renal. The TGI in the assay with SF-268 CNS was 37.7 µM; in the assay with OVCAR-3 ovarian it was 11.4 µM; in the assay on HCT-15 colon it was greater than 100 µM; in the assay with U251 CNS, 13.6 µM.
